Tested on in the first assay: not listed separately
As to the kind of experiment: DRUGMATRIX: GABAA, Muscimol, Central radioligand binding (ligand: [3H] Muscimol). The assay is classed as cell membranes, Rattus norvegicus, Wistar, Brain, Membrane. As to conditions: Not Active = under 50% inhibition at 10 µM.
One may read the IC50 as the midpoint of a concentration-inhibition curve. By Ki is commonly meant the equilibrium dissociation constant of an inhibitor or competing ligand from its target. For the compound `NC[C@H]1O[C@H](O[C@H]2[C@H](O)[C@@H](O[C@H]3O[C@H](CO)[C@@H](O)[C@H](N)[C@H]3O)[C@H](N)C[C@@H]2N)[C@H](O)[C@@H](O)[C@@H]1O` [KANAMYCIN], the IC50 entry is listed as “Not Active” and the Ki entry was “Not Active”.
Turning to `CC[C@H](C)C(=O)O[C@H]1C[C@@H](C)C=C2C=C[C@H](C)[C@H](CC[C@@H]3C[C@@H](O)CC(=O)O3)[C@H]21` [LOVASTATIN], the IC50 entry was “Not Active” and the inhibitory constant (Ki) entry was “Not Active”.
In the case of `CC(C(=O)O)c1ccc(CC2CCCC2=O)cc1` (stereo not drawn) [LOXOPROFEN], the IC50 result was “Not Active” and the Ki result is listed as “Not Active”.

The target in the next assay is T1, Calcitonin receptor (Homo sapiens, UniProt P30988). Further: in other assays of this panel Not Active means under 50% inhibition at 10 µM.
T1 sequence (P30988 whole entry): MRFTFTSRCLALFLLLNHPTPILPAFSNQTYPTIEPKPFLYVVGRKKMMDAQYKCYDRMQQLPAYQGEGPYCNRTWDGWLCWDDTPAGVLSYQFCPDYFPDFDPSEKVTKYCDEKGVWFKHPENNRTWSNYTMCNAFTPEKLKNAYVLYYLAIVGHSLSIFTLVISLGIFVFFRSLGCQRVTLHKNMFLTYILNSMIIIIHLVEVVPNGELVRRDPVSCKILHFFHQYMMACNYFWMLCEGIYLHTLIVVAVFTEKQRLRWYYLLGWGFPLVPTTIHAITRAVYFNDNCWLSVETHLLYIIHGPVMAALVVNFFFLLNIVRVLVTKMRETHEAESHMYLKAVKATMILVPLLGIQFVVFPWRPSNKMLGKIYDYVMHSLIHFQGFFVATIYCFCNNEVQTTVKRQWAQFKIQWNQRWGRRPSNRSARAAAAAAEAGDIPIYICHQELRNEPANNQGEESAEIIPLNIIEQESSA
Test: not given
As to conditions: t47d. The assay is classed as cell membranes, Membrane.
For `NC[C@H]1O[C@H](O[C@H]2[C@H](O)[C@@H](O[C@H]3O[C@H](CO)[C@@H](O)[C@H](N)[C@H]3O)[C@H](N)C[C@@H]2N)[C@H](O)[C@@H](O)[C@@H]1O` [KANAMYCIN], the 50% inhibitory concentration (IC50) result is “Not Active”.
On the same count and under the same terms, then `CC[C@H](C)C(=O)O[C@H]1C[C@@H](C)C=C2C=C[C@H](C)[C@H](CC[C@@H]3C[C@@H](O)CC(=O)O3)[C@H]21` [LOVASTATIN], with “Not Active”.
The same measure, in the same setting: then `CC(C(=O)O)c1ccc(CC2CCCC2=O)cc1` (stereo not drawn) [LOXOPROFEN], with “Not Active”.

Tested on in another assay: not listed separately
The assay is described as follows: DRUGMATRIX: Calcium Channel Type L, Phenylalkylamine radioligand binding (ligand: [3H] (-)-Desmethoxyverapamil (D-888)). The assay is classed as cell membranes, Rattus norvegicus, Wistar, Brain, Membrane. As to conditions: Not Active = under 50% inhibition at 10 µM.
In the case of `NC[C@H]1O[C@H](O[C@H]2[C@H](O)[C@@H](O[C@H]3O[C@H](CO)[C@@H](O)[C@H](N)[C@H]3O)[C@H](N)C[C@@H]2N)[C@H](O)[C@@H](O)[C@@H]1O` [KANAMYCIN], the concentration for half-maximal inhibition (IC50) result is “Not Active” and the Ki entry is listed as “Not Active”.
Regarding `CC(C(=O)O)c1ccc(CC2CCCC2=O)cc1` (stereo not drawn) [LOXOPROFEN], the 50% inhibitory concentration (IC50) result is “Not Active” and the Ki entry is recorded as “Not Active”.

The assay is the same for the next values; noted with them: Not Active = under 50% inhibition at 10 µM; read-out: IC50.
On to `CC[C@H](C)C(=O)O[C@H]1C[C@@H](C)C=C2C=C[C@H](C)[C@H](CC[C@@H]3C[C@@H](O)CC(=O)O3)[C@H]21` [LOVASTATIN], for which the half-inhibitory concentration (IC50) turned out to be 6.32 µM.

Still in this assay, the particulars now being: Not Active = under 50% inhibition at 10 µM; read-out: Ki.
On to `CC[C@H](C)C(=O)O[C@H]1C[C@@H](C)C=C2C=C[C@H](C)[C@H](CC[C@@H]3C[C@@H](O)CC(=O)O3)[C@H]21` [LOVASTATIN], for which the Ki amounted to 6.14 µM.

The target of the next assay is T2, Endothelin-1 receptor (Homo sapiens, UniProt P25101). Further: in other assays of this panel Not Active means under 50% inhibition at 10 µM.
T2 sequence (P25101 whole entry): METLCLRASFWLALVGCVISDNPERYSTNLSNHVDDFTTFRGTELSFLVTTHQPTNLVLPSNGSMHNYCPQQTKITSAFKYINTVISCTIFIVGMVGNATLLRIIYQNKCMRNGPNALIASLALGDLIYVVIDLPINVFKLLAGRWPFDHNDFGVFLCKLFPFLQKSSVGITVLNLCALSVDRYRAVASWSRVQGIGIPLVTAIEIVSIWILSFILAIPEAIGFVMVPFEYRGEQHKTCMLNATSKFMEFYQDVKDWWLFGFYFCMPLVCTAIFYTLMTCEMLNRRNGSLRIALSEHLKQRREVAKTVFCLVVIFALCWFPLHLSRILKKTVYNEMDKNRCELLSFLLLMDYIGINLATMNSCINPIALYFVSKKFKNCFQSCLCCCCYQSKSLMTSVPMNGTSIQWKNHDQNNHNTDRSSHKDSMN
Test: not given
The assay is classed as cell membranes, CHO-K1, Membrane. As to conditions: cho-k1.
Consider `NC[C@H]1O[C@H](O[C@H]2[C@H](O)[C@@H](O[C@H]3O[C@H](CO)[C@@H](O)[C@H](N)[C@H]3O)[C@H](N)C[C@@H]2N)[C@H](O)[C@@H](O)[C@@H]1O` [KANAMYCIN], for which the IC50 entry is listed as “Not Active”.
For the compound `CC[C@H](C)C(=O)O[C@H]1C[C@@H](C)C=C2C=C[C@H](C)[C@H](CC[C@@H]3C[C@@H](O)CC(=O)O3)[C@H]21` [LOVASTATIN], the IC50 result is “Not Active”.
Still for that read-out and setting: to `CC(C(=O)O)c1ccc(CC2CCCC2=O)cc1` (stereo not drawn) [LOXOPROFEN] belongs “Not Active”.

Another assay addresses Aldo-keto reductase family 1 member B1 (Rattus norvegicus, UniProt P07943). The assay is described as follows: biochemical. The assay is classed as tissue-based, Lens of camera-type eye.
Conditions: not given
Turning to `NC[C@H]1O[C@H](O[C@H]2[C@H](O)[C@@H](O[C@H]3O[C@H](CO)[C@@H](O)[C@H](N)[C@H]3O)[C@H](N)C[C@@H]2N)[C@H](O)[C@@H](O)[C@@H]1O` [KANAMYCIN], the IC50 entry is given as “Not Active”.
The same measure, in the same setting: then `CC[C@H](C)C(=O)O[C@H]1C[C@@H](C)C=C2C=C[C@H](C)[C@H](CC[C@@H]3C[C@@H](O)CC(=O)O3)[C@H]21` [LOVASTATIN], with “Not Active”.
Still for that read-out and setting: then `CC(C(=O)O)c1ccc(CC2CCCC2=O)cc1` (stereo not drawn) [LOXOPROFEN], with “Not Active”.

The next assay has as its target T3, Angiotensin-converting enzyme (Oryctolagus cuniculus, UniProt P12822).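 Further: enzymatic inhibition of angiotensin-converting enzyme measured with FAPGG as the substrate; in other assays of this panel Not Active means under 50% inhibition at 10 µM.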
T3 sequence (P12822 whole entry): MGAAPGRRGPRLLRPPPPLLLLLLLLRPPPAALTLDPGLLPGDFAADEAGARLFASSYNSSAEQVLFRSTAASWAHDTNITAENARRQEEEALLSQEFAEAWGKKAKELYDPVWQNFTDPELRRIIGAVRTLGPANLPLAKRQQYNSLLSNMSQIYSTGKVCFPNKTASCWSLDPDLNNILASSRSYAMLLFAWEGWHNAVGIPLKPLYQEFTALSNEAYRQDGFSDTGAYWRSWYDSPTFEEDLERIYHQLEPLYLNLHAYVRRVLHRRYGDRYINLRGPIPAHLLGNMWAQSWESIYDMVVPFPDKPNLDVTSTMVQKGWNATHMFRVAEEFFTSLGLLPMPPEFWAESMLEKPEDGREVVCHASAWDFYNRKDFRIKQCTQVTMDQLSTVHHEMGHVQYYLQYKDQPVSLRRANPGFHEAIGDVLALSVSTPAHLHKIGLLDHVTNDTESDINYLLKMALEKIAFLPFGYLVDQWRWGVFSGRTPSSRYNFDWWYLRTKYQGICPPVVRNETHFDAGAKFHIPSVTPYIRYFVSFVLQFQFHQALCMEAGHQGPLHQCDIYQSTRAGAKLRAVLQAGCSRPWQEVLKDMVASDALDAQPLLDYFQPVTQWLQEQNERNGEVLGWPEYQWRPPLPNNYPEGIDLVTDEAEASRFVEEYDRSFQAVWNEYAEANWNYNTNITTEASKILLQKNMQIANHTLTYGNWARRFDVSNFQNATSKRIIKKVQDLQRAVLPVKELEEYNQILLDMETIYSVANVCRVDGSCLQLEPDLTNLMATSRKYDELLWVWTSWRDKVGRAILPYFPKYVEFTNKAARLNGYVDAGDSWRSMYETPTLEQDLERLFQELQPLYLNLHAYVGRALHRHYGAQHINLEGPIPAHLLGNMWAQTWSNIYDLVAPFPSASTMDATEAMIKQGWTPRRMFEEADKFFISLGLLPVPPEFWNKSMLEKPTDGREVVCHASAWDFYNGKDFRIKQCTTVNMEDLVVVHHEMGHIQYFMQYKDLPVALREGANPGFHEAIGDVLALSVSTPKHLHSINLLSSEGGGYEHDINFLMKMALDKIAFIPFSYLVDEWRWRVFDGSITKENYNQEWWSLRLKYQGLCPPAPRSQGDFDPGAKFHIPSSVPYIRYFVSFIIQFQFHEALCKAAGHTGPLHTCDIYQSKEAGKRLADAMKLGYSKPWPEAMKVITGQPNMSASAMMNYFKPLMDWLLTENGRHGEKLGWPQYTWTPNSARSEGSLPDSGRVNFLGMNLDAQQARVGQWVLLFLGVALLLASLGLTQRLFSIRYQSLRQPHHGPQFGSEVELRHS
Test: not given
Conditions: not given
The assay is classed as tissue-based, Lung.
On to `NC[C@H]1O[C@H](O[C@H]2[C@H](O)[C@@H](O[C@H]3O[C@H](CO)[C@@H](O)[C@H](N)[C@H]3O)[C@H](N)C[C@@H]2N)[C@H](O)[C@@H](O)[C@@H]1O` [KANAMYCIN], for which the IC50 result is “Not Active”.
On the same count and under the same terms, then `CC[C@H](C)C(=O)O[C@H]1C[C@@H](C)C=C2C=C[C@H](C)[C@H](CC[C@@H]3C[C@@H](O)CC(=O)O3)[C@H]21` [LOVASTATIN], with “Not Active”; and `CC(C(=O)O)c1ccc(CC2CCCC2=O)cc1` (stereo not drawn) [LOXOPROFEN], with “Not Active”.

Tested on in the next assay: not listed separately
The assay is described as follows: DRUGMATRIX: Glutamate, NMDA, Agonism radioligand binding (ligand: [3H] CGP-39653). The assay is classed as cell membranes, Rattus norvegicus, Wistar, Cerebral cortex, Membrane. As to conditions: Not Active = under 50% inhibition at 10 µM.
For the compound `NC[C@H]1O[C@H](O[C@H]2[C@H](O)[C@@H](O[C@H]3O[C@H](CO)[C@@H](O)[C@H](N)[C@H]3O)[C@H](N)C[C@@H]2N)[C@H](O)[C@@H](O)[C@@H]1O` [KANAMYCIN], the IC50 result is given as “Not Active” and the Ki entry was “Not Active”.
As for `CC[C@H](C)C(=O)O[C@H]1C[C@@H](C)C=C2C=C[C@H](C)[C@H](CC[C@@H]3C[C@@H](O)CC(=O)O3)[C@H]21` [LOVASTATIN], the IC50 result is recorded as “Not Active” and the Ki result is “Not Active”.
For the compound `CC(C(=O)O)c1ccc(CC2CCCC2=O)cc1` (stereo not drawn) [LOXOPROFEN], the IC50 result was “Not Active” and the Ki result was “Not Active”.

The target in another assay is T4, D(4) dopamine receptor (Homo sapiens, UniProt P21917).
T4 sequence (P21917 whole entry): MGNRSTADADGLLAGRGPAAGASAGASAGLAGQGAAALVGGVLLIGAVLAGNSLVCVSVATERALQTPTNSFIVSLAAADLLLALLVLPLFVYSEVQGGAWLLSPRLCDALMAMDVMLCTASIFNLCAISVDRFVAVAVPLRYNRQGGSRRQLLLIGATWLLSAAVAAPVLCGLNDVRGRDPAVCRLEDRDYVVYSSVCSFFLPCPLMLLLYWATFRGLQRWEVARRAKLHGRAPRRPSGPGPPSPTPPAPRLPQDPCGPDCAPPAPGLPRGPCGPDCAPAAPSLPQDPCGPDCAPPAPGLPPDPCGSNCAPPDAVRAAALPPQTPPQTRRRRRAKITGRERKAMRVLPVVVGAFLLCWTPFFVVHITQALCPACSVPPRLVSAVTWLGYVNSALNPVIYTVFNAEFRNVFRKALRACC
As to the kind of experiment: DRUGMATRIX: Dopamine D4.2 radioligand binding (ligand: [3H] Spiperone). The assay is classed as cell membranes, CHO-K1, Membrane. As to conditions: cho-k1; Not Active = under 50% inhibition at 10 µM.
As to `NC[C@H]1O[C@H](O[C@H]2[C@H](O)[C@@H](O[C@H]3O[C@H](CO)[C@@H](O)[C@H](N)[C@H]3O)[C@H](N)C[C@@H]2N)[C@H](O)[C@@H](O)[C@@H]1O` [KANAMYCIN], the IC50 result is “Not Active”.
Still for that read-out and setting: to `CC[C@H](C)C(=O)O[C@H]1C[C@@H](C)C=C2C=C[C@H](C)[C@H](CC[C@@H]3C[C@@H](O)CC(=O)O3)[C@H]21` [LOVASTATIN] belongs “Not Active”.
Still for that read-out and setting: then `CC(C(=O)O)c1ccc(CC2CCCC2=O)cc1` (stereo not drawn) [LOXOPROFEN], with “Not Active”.

Values taken from ChEMBL document CHEMBL1909046, “DrugMatrix in vitro pharmacology data”.
